# Data as given in patent US10156556B2, “Method for determining ecological risks of polycyclic aromatic hydrocarbon in water body” (priority 2013, dated 2018).
# Tests used:
# [1] = relative to benzoapyrene; Nisbet and Lagoy 1992; cited from earlier work
# [2] = test system: 95% of species in the protected water ecological system; assay: Calculation of HC5 from log-transformed NOEC data; settings: HC5=exp(Xm-KLSm), six species, KL 1.81
# Text: (3) calculating benzoapyrene concentration values HC5 of 95% of species in the protected water ecological system: i.e., performing logarithmic transformation on the toxicity data and applying a formula HC5=exp(Xm−KLSm)′ to calculate, wherein m is the number of species, Xm means the arithmetic mean value of the toxicity data of the m species after the logarithmic transformation; Sm means the standard deviation of the toxicity data of the m species after the logarithmic transformation; and KL is a regulation factor, obtained from literature;
# (3) Calculating the benzoapyrene concentration values HC5 of 95% of species in the protected water ecological system: logarithmic transformation is performed on the toxicity data in Table 1 to obtain that the arithmetic mean value Xm 3.77 ug/L and the standard deviation Sm 4.95 ug/L, and calculation is conducted using a formula HC5=exp(Xm−KLSm)i, wherein the regulation factor KL is 1.81 (from published literature: Aldenberg and Slob, Confidence limits for hazardous concentrations based on logistically distributed NOEC toxicity data, 1991), and the HC5 value is obtained as 0.0056 ug/L.
# [3] = test system: water ecological system of the lake; assay: Ecological risk quotient, Monte Carlo sampling (10,000 times); settings: single pollutant, water body of the lake
# Text: (5) calculating ecological risk quotient values RQi of specific polycyclic aromatic hydrocarbon pollutants: calculating according to a formula
# [formula] wherein ECi is the environmental concentration of an i^th polycyclic aromatic hydrocarbon pollutant, TEFi is a toxic equivalency factor of the i^th polycyclic aromatic hydrocarbon pollutant relative to the benzoapyrene, and a concrete numerical value is from literature, and HC5 is the benzoapyrene concentration values of 95% of species in the protected water ecological system; conducting random sampling for 10,000 times using a Monte Carlo sampling method according to the concentration distribution characteristics of different polycyclic aromatic hydrocarbons; and drawing cumulative probability distribution curves of the ecological risk quotient values of each polycyclic aromatic hydrocarbon pollutant according to the Monte Carlo sampling result, and analyzing the probability that the risk quotient values thereof RQi are no less than one; and
# (6) calculating the total ecological risk quotient value RQt of each polycyclic aromatic hydrocarbon pollutant: calculating according to a formula […]
# [4] = test system: Green algae; settings: chronic toxicity data, PAN Pesticide Database and EPA EcoTox Database; cited from earlier work
# [5] = test system: Chironomidae; settings: chronic toxicity data, PAN Pesticide Database and EPA EcoTox Database; cited from earlier work
# [6] = test system: Daphnia magna; settings: chronic toxicity data, PAN Pesticide Database and EPA EcoTox Database; cited from earlier work
# [7] = test system: Mussel; settings: chronic toxicity data, PAN Pesticide Database and EPA EcoTox Database; cited from earlier work
# [8] = test system: Frog; settings: chronic toxicity data, PAN Pesticide Database and EPA EcoTox Database; cited from earlier work
# [9] = test system: Barbel fish; settings: chronic toxicity data, PAN Pesticide Database and EPA EcoTox Database; cited from earlier work
Compound,Toxic equivalency factor [1],also measured
"c1ccc2cc3ccccc3cc2c1 [Ant, anthracene]",0.01,–
c1ccc2c(c1)-c1cccc3c1c-2cc1ccccc13 [B[b]F],0.1,–
"c1ccc2c(c1)cc1ccc3cccc4ccc2c1c34 [B[a]P, benzoapyrene]",1,HC5 (concentration value of 95% of species in the protected water ecological system) [2]: 0.0056 ug/L; probability of the risk quotient value RQi greater than or equal to one [3]: 54.4%; NOEC [4]: 250000 µg/L; NOEC [5]: 5 µg/L; NOEC [6]: 0.02 µg/L; NOEC [7]: 500 µg/L; NOEC [8]: 10 µg/L; NOEC [9]: 54.2 µg/L
c1ccc2ccccc2c1 [Nap],0.001,–
c1ccc2c(c1)ccc1c3ccccc3ccc21 [Chr],0.01,–
c1ccc2c(c1)-c1ccc3ccc4cccc5cc-2c1c3c45 [Ind],0.1,–
c1ccc2cc3c(cc2c1)-c1cccc2cccc-3c12 [B[k]F],0.1,–
c1cc2ccc3ccc4ccc5cccc6c(c1)c2c3c4c56 [B[ghi]P],0.01,–
c1cc2c3c(cccc3c1)CC2 [Ace],0.001,–
C1=Cc2cccc3cccc1c23 [Acy],0.001,–
c1ccc2c(c1)ccc1cc3c(ccc4ccccc43)cc12 [DBA],1,probability of the risk quotient value RQi greater than or equal to one [3]: 61.8%
